In experiment [1] the test system is Escherichia coli. The experiment in a line: Induction of plasma membrane disruption in Escherichia coli ATCC 25922 at 2 mg/mL after 2 hrs by Sytox dye based assay. Type of experiment: functional, organism-based.
Experiment [2] deals with Escherichia coli. The experiment in a line: Induction of plasma membrane disruption in Escherichia coli ATCC 25922 at 2 mg/mL after 10 mins by Sytox dye based assay. Type of experiment: functional, organism-based.
Experiment [3] deals with Escherichia coli. The experiment is described as follows: Induction of plasma membrane disruption in Escherichia coli ATCC 25922 at 4 ug/mL after 2 hrs by Sytox dye based assay. Type of experiment: functional, organism-based.
For experiment [4], the system named is Escherichia coli. The experiment is described as follows: Induction of plasma membrane disruption in Escherichia coli ATCC 25922 a 4 ug/mL after 10 mins by Sytox dye based assay. Type of experiment: functional, organism-based.
Experiment [5] relates to Escherichia coli. The experiment is described as follows: Antibacterial activity against Escherichia coli ATCC 25922 after 12 to 18 hrs by broth dilution method. Type of experiment: functional.
The subject of experiment [6] is Staphylococcus aureus. The experiment in a line: Induction of plasma membrane disruption in Staphylococcus aureus ATCC 25923 at 8 ug/mL after 2 hrs by Sytox dye based assay. It is filed as functional, organism-based.
The subject of experiment [7] is Escherichia coli. The experiment in a line: Induction of redox process disruption in Escherichia coli ATCC 25922 at 4 ug/mL after 2 hrs by CTC dye based assay. Type of experiment: functional, organism-based.
The subject of experiment [8] is Staphylococcus aureus. The experiment in a line: Induction of plasma membrane disruption in Staphylococcus aureus ATCC 25923 at 0.064 ug/mL after 2 hrs by Sytox dye based assay. Type of experiment: functional, organism-based.
Experiment [9] has as its system Escherichia coli. The experiment is described as follows: Induction of redox process disruption in Escherichia coli ATCC 25922 at 2 mg/mL after 2 hrs by CTC dye based assay. It is filed as functional, organism-based.
For experiment [10], the system named is Escherichia coli. The experiment is described as follows: Induction of redox process disruption in Escherichia coli ATCC 25922 at 2 mg/mL after 6 hrs by CTC dye based assay. Type of experiment: functional, organism-based.
Experiment [11] relates to Staphylococcus aureus. The experiment in a line: Induction of redox process disruption in Staphylococcus aureus ATCC 25923 at 8 ug/mL after 2 hrs by CTC dye based assay. Type of experiment: functional, organism-based.
The test system of experiment [12] is Staphylococcus aureus. The experiment in a line: Induction of redox process disruption in Staphylococcus aureus ATCC 25923 at 0.064 ug/mL after 2 hrs by CTC dye based assay. Type of experiment: functional, organism-based.
For experiment [13], the system named is Staphylococcus aureus. The experiment is described as follows: Induction of plasma membrane disruption in Staphylococcus aureus ATCC 25923 at 8 ug/mL after 10 mins by Sytox dye based assay. Type of experiment: functional, organism-based.
The subject of experiment [14] is Escherichia coli. The experiment in a line: Induction of redox process disruption in Escherichia coli ATCC 25922 at 4 ug/mL after 6 hrs by CTC dye based assay. Type of experiment: functional, organism-based.
Experiment [15] relates to Staphylococcus aureus. The experiment in a line: Antibacterial activity against Staphylococcus aureus ATCC 25923 after 12 to 18 hrs by broth dilution method. It is filed as functional.
The test system of experiment [16] is Staphylococcus aureus. The experiment in a line: Induction of redox process disruption in Staphylococcus aureus ATCC 25923 at 0.064 ug/mL after 6 hrs by CTC dye based assay. It is filed as functional, organism-based.
In experiment [17] the test system is Staphylococcus aureus. The experiment in a line: Induction of redox process disruption in Staphylococcus aureus ATCC 25923 at 8 ug/mL after 6 hrs by CTC dye based assay. It is filed as functional, organism-based.
For experiment [18], the system named is Staphylococcus aureus. The experiment is described as follows: Induction of plasma membrane disruption in Staphylococcus aureus ATCC 25923 at 0.064 ug/mL after 10 mins by Sytox dye based assay. Type of experiment: functional, organism-based.

Active and inactive are the calls of the source. No cut-off for these calls is given here.

Consider Hexadecyltrimethylammonium bromide, for which the outcome in [1] and in experiment [2] was Active.

Regarding `CCCCCCCCn1n[n+](C)c2c1C(=O)c1ccccc1C2=O.[Cl-]`, the result in experiment [3], in experiment [4], in experiment [6], in experiment [7], in experiment [8] and in [12] was inactive. For the same molecule, the result in [13], in [14], in [16] and in experiment [18] was inactive. Further, the MIC in experiment [5] was 16 µg/mL; in [15] it was 0.032 µg/mL. Further, the outcome in experiment [1], in experiment [9], in experiment [10], in [11], in [17] and in experiment [2] was Active.

As for `CCCCCCCCCCCCn1n[n+](C)c2c1C(=O)c1ccccc1C2=O.[Cl-]`, the result in experiment [3], in [4], in experiment [6], in experiment [7], in experiment [8] and in experiment [12] was inactive. The result in experiment [13], in experiment [14], in [16] and in experiment [18] was inactive. Besides, the MIC in experiment [5] worked out at 16 µg/mL; in experiment [15] it was 0.064 µg/mL. Also, the outcome in experiment [1], in experiment [9], in experiment [10], in experiment [11], in experiment [17] and in [2] was Active.

In the case of `CCCCCCCCCCn1n[n+](C)c2c1C(=O)c1ccccc1C2=O.[Cl-]`, the outcome in [3], in experiment [4], in experiment [6], in experiment [7], in [8] and in experiment [12] was inactive. Further, the result in [13], in experiment [14], in experiment [16] and in experiment [18] was inactive. The MIC in [5] was found to be 32 µg/mL; in experiment [15], 0.032 µg/mL. Also, the result in [1], in [9], in [10], in experiment [11], in experiment [17] and in experiment [2] was Active.

As for `CCCCCCCCCCCCCCCCn1n[n+](C)c2c1C(=O)c1ccccc1C2=O.[Cl-]`, the outcome in experiment [3], in [4], in experiment [6], in [7], in experiment [8] and in [12] was inactive. Also, the outcome in experiment [13], in [14], in experiment [16] and in experiment [18] was inactive. For the same molecule, the MIC in experiment [5] was at least 250 µg/mL; in [15], 0.25 µg/mL. Also, the result in experiment [1], in experiment [9], in experiment [10], in [11], in [17] and in experiment [2] was Active.

As for `CCCCCCCCCn1n[n+](C)c2c1C(=O)c1ccccc1C2=O.[Cl-]`, the outcome in experiment [3], in [4], in experiment [6], in experiment [7], in experiment [8] and in [12] was inactive. The outcome in experiment [13], in experiment [14], in [16] and in experiment [18] was inactive. Besides, the MIC in [5] was found to be 64 µg/mL; in experiment [15], 0.032 µg/mL. In addition, the result in experiment [1], in experiment [9], in experiment [10], in experiment [11], in [17] and in experiment [2] was Active.

For the molecule `CCCCCCCCn1n[n+](CC)c2c1C(=O)c1ccccc1C2=O.[Cl-]`, the outcome in experiment [3], in [4], in [6], in experiment [7], in experiment [8] and in experiment [12] was inactive. In addition, the outcome in experiment [13], in [14], in experiment [16] and in experiment [18] was inactive. Further, the MIC in experiment [5] was at least 250 µg/mL; in experiment [15] it was 0.25 µg/mL. The outcome in experiment [1], in experiment [9], in experiment [10], in experiment [11], in experiment [17] and in experiment [2] was Active.

Take `CCCCCCCCCCCn1n[n+](C)c2c1C(=O)c1ccccc1C2=O.[Cl-]`: the result in experiment [3], in experiment [4], in [6], in [7], in [8] and in [12] was inactive. Also, the result in experiment [13], in [14], in experiment [16] and in [18] was inactive. Besides, the minimum inhibitory concentration (MIC) in [5] came to 32 µg/mL; in [15], 0.25 µg/mL. Further, the result in experiment [1], in [9], in experiment [10], in [11], in [17] and in [2] was Active.

The values above are taken from ChEMBL document CHEMBL1909640, “Mode of action investigation for the antibacterial cationic anthraquinone analogs” (2011).
